Test results: PubChem BioAssay AID1259407 (Chemical Carcinogenesis Research Information System (CCRIS), 2018)
The source made the active and inactive calls. No rule for the calls is given here.

System: CCRIS mutagenicity, Ames/micronucleus/aberration tests
Assay: CCRIS mutagenicity studies
[1] = Test System: AMES SALMONELLA TYPHIMURIUM, Strain/Indicator: TA100, Metabolic Activation: NONE, Method: STANDARD PLATE

## O=C([O-])c1ccccn1.O=C([O-])c1ccccn1.O=C([O-])c1ccccn1.[Cr+3]
End Point: In vivo chromosomal aberrations, Test System: Bone marrow cells, Species: Rat, Strain/Sex: Sprague-Dawley/Male and female, Route: Oral (gavage) once
  mutagenic call: inactive; negative
End Point: In vivo micronucleus, Test System: Bone marrow polychromatic erythrocytes, Species: Rat, Strain/Sex: F344/N / Male, Route: Oral
  mutagenic call: inactive; negative
Test System: AMES SALMONELLA TYPHIMURIUM, Strain/Indicator: TA98, Metabolic Activation: HAMSTER LIVER S-9, AROCLOR 1254, Method: STANDARD PLATE
  mutagenic call: inactive; negative
Test System: AMES SALMONELLA TYPHIMURIUM, Strain/Indicator: TA98, Metabolic Activation: HAMSTER, LIVER, S-9, AROCLOR 1254, Method: STANDARD PLATE
  mutagenic call: inactive; negative
Test System: AMES SALMONELLA TYPHIMURIUM, Strain/Indicator: TA98, Metabolic Activation: NONE, Method: STANDARD PLATE
  mutagenic call: inactive; negative
Test System: AMES SALMONELLA TYPHIMURIUM, Strain/Indicator: TA98, Metabolic Activation: RAT LIVER S-9, AROCLOR 1254, Method: STANDARD PLATE
  mutagenic call: inactive; negative
Test System: AMES SALMONELLA TYPHIMURIUM, Strain/Indicator: TA98, Metabolic Activation: RAT, LIVER, S-9, AROCLOR 1254, Method: STANDARD PLATE
  mutagenic call: inactive; negative
Test System: AMES SALMONELLA TYPHIMURIUM, Strain/Indicator: TA100, Metabolic Activation: HAMSTER LIVER S-9, AROCLOR 1254, Method: STANDARD PLATE
  mutagenic call: inactive; negative
Test System: AMES SALMONELLA TYPHIMURIUM, Strain/Indicator: TA100, Metabolic Activation: HAMSTER, LIVER, S-9, AROCLOR 1254, Method: STANDARD PLATE
  mutagenic call: inactive; negative
[1]
  mutagenic call: inactive; negative
Test System: AMES SALMONELLA TYPHIMURIUM, Strain/Indicator: TA100, Metabolic Activation: RAT LIVER S-9, AROCLOR 1254, Method: STANDARD PLATE
  mutagenic call: inactive; negative
Test System: AMES SALMONELLA TYPHIMURIUM, Strain/Indicator: TA100, Metabolic Activation: RAT, LIVER, S-9, AROCLOR 1254, Method: STANDARD PLATE
  mutagenic call: inactive; negative
Test System: AMES SALMONELLA TYPHIMURIUM, Strain/Indicator: TA102, Metabolic Activation: HAMSTER LIVER S-9, AROCLOR 1254, Method: STANDARD PLATE
  mutagenic call: inactive; negative
Test System: AMES SALMONELLA TYPHIMURIUM, Strain/Indicator: TA102, Metabolic Activation: NONE, Method: STANDARD PLATE
  mutagenic call: inactive; negative
Test System: AMES SALMONELLA TYPHIMURIUM, Strain/Indicator: TA102, Metabolic Activation: RAT LIVER S-9, AROCLOR 1254, Method: STANDARD PLATE
  mutagenic call: inactive; negative
Test System: AMES SALMONELLA TYPHIMURIUM, Strain/Indicator: TA1535, Metabolic Activation: HAMSTER LIVER S-9, AROCLOR 1254, Method: STANDARD PLATE
  mutagenic call: inactive; negative
Test System: AMES SALMONELLA TYPHIMURIUM, Strain/Indicator: TA1535, Metabolic Activation: HAMSTER, LIVER, S-9, AROCLOR 1254, Method: STANDARD PLATE
  mutagenic call: inactive; negative
Test System: AMES SALMONELLA TYPHIMURIUM, Strain/Indicator: TA1535, Metabolic Activation: NONE, Method: STANDARD PLATE
  mutagenic call: inactive; negative
Test System: AMES SALMONELLA TYPHIMURIUM, Strain/Indicator: TA1535, Metabolic Activation: RAT LIVER S-9, AROCLOR 1254, Method: STANDARD PLATE
  mutagenic call: inactive; negative
Test System: AMES SALMONELLA TYPHIMURIUM, Strain/Indicator: TA1535, Metabolic Activation: RAT, LIVER, S-9, AROCLOR 1254, Method: STANDARD PLATE
  mutagenic call: inactive; negative
Test System: AMES SALMONELLA TYPHIMURIUM, Strain/Indicator: TA1537, Metabolic Activation: HAMSTER LIVER S-9, AROCLOR 1254, Method: STANDARD PLATE
  mutagenic call: inactive; negative
Test System: AMES SALMONELLA TYPHIMURIUM, Strain/Indicator: TA1537, Metabolic Activation: HAMSTER, LIVER, S-9, AROCLOR 1254, Method: STANDARD PLATE
  mutagenic call: inactive; negative
Test System: AMES SALMONELLA TYPHIMURIUM, Strain/Indicator: TA1537, Metabolic Activation: NONE, Method: STANDARD PLATE
  mutagenic call: inactive; negative
Test System: AMES SALMONELLA TYPHIMURIUM, Strain/Indicator: TA1537, Metabolic Activation: RAT LIVER S-9, AROCLOR 1254, Method: STANDARD PLATE
  mutagenic call: inactive; negative
Test System: AMES SALMONELLA TYPHIMURIUM, Strain/Indicator: TA1537, Metabolic Activation: RAT, LIVER, S-9, AROCLOR 1254, Method: STANDARD PLATE
  mutagenic call: inactive; negative
Test System: Ames Salmonella typhimurium, Strain/Indicator: TA97, Metabolic Activation: Hamster, Liver, S-9, Aroclor 1254 (10 and 30%), Method: Preincubation
  mutagenic call: inactive; negative
Test System: Ames Salmonella typhimurium, Strain/Indicator: TA97, Metabolic Activation: None, Method: Preincubation
  mutagenic call: inactive; negative
Test System: Ames Salmonella typhimurium, Strain/Indicator: TA97, Metabolic Activation: Rat, Liver, S-9, Aroclor 1254 (10 and 30%), Method: Preincubation
  mutagenic call: inactive; negative
Test System: Ames Salmonella typhimurium, Strain/Indicator: TA98, Metabolic Activation: Hamster, Liver, S-9, Aroclor 1254 (10 and 30%), Method: Preincubation
  mutagenic call: inactive; negative
Test System: Ames Salmonella typhimurium, Strain/Indicator: TA98, Metabolic Activation: None, Method: Preincubation
  mutagenic call: inactive; negative
Test System: Ames Salmonella typhimurium, Strain/Indicator: TA98, Metabolic Activation: Rat, Liver, S-9, Aroclor 1254 (10 and 30%), Method: Preincubation
  mutagenic call: inactive; negative
Test System: Ames Salmonella typhimurium, Strain/Indicator: TA100, Metabolic Activation: Hamster, Liver, S-9, Aroclor 1254 (10 and 30%), Method: Preincubation
  mutagenic call: inactive; negative
Test System: Ames Salmonella typhimurium, Strain/Indicator: TA100, Metabolic Activation: None, Method: Preincubation
  mutagenic call: inactive; negative
Test System: Ames Salmonella typhimurium, Strain/Indicator: TA100, Metabolic Activation: Rat, Liver, S-9, Aroclor 1254 (10 and 30%), Method: Preincubation
  mutagenic call: inactive; negative
Test System: Ames Salmonella typhimurium, Strain/Indicator: TA102, Metabolic Activation: Hamster, Liver, S-9, Aroclor 1254 (10 and 30%), Method: Preincubation
  mutagenic call: inactive; negative
Test System: Ames Salmonella typhimurium, Strain/Indicator: TA102, Metabolic Activation: Hamster, Liver, S-9, Aroclor 1254 (30%), Method: Preincubation
  mutagenic call: inactive; negative
Test System: Ames Salmonella typhimurium, Strain/Indicator: TA102, Metabolic Activation: None, Method: Preincubation
  mutagenic call: inactive; negative
Test System: Ames Salmonella typhimurium, Strain/Indicator: TA102, Metabolic Activation: Rat, Liver, S-9, Aroclor 1254 (10 and 30%), Method: Preincubation
  mutagenic call: inactive; negative
Test System: Ames Salmonella typhimurium, Strain/Indicator: TA102, Metabolic Activation: Rat, Liver, S-9, Aroclor 1254 (30%), Method: Preincubation
  mutagenic call: inactive; negative
Test System: Ames Salmonella typhimurium, Strain/Indicator: TA104, Metabolic Activation: Hamster, Liver, S-9, Aroclor 1254 (10 and 30%), Method: Preincubation
  mutagenic call: inactive; negative
Test System: Ames Salmonella typhimurium, Strain/Indicator: TA104, Metabolic Activation: Hamster, Liver, S-9, Aroclor 1254 (30%), Method: Preincubation
  mutagenic call: inactive; negative
Test System: Ames Salmonella typhimurium, Strain/Indicator: TA104, Metabolic Activation: None, Method: Preincubation
  mutagenic call: inactive; negative
Test System: Ames Salmonella typhimurium, Strain/Indicator: TA104, Metabolic Activation: Rat, Liver, S-9, Aroclor 1254 (10 and 30%), Method: Preincubation
  mutagenic call: inactive; negative
Test System: Ames Salmonella typhimurium, Strain/Indicator: TA104, Metabolic Activation: Rat, Liver, S-9, Aroclor 1254 (30%), Method: Preincubation
  mutagenic call: inactive; negative
Test System: Ames Salmonella typhimurium, Strain/Indicator: TA1535, Metabolic Activation: Hamster, Liver, S-9, Aroclor 1254 (10 and 30%), Method: Preincubation
  mutagenic call: inactive; negative
Test System: Ames Salmonella typhimurium, Strain/Indicator: TA1535, Metabolic Activation: None, Method: Preincubation
  mutagenic call: inactive; negative
Test System: Ames Salmonella typhimurium, Strain/Indicator: TA1535, Metabolic Activation: Rat, Liver, S-9, Aroclor 1254 (10 and 30%), Method: Preincubation
  mutagenic call: inactive; negative
Test System: CHINESE HAMSTER OVARY CELLS, Strain/Indicator: CHO CELLS (HPRT)/6-THIOGUANINE, Metabolic Activation: NONE, Method: STANDARD PLATE
  mutagenic call: active; positive
Test System: CHINESE HAMSTER OVARY CELLS, Strain/Indicator: CHO-K1/HPRT/6-THIOGUANINE, Metabolic Activation: NONE, Method: 5 HR EXPOSURE
  mutagenic call: inactive; negative
Test System: CHINESE HAMSTER OVARY CELLS, Strain/Indicator: CHO-K1/HPRT/6-THIOGUANINE, Metabolic Activation: NONE, Method: 48 HR EXPOSURE
  mutagenic call: inactive; negative
Test System: CHINESE HAMSTER OVARY CELLS, Strain/Indicator: CHO-K1/HPRT/6-THIOGUANINE, Metabolic Activation: RAT, LIVER, S-9, AROCLOR 1254, Method: 5 HR EXPOSURE
  mutagenic call: inactive; negative

## COc1cc(CNC(=O)C(C)Br)ccc1O (configuration not stated)
[1]
  mutagenic call: active; positive
